Where “and” joins values, the source holds several entries; their conditions need not be identical. Identical values can stand only once. Inconclusive results and toxic doses are left out. Cut-off read from the data, not from the text of the source: active = T/C of 150% or more; inactive = T/C below 125%.
Tested on: L1210 leukemia ip in BDF1 mice, survival T/C
Assay: NCI In Vivo Anticancer Drug Screen. Data for tumor model L1210 Leukemia (intraperitoneal) in B6D2F1 (BDF1) mice
Details: endpoint: mean survival time, higher = longer survival
Summary of the method: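 Transplantable tumor model; survival measured in treated vs vehicle control mice. Value = treated/control.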

[1] = dose: 100.0 mg/kg/injection, schedule: Q04DX003 (ip), vehicle: Klucel (hydroxypropylcellulose) (HPC)
[2] = dose: 200.0 mg/kg/injection, schedule: Q04DX003 (ip), vehicle: Klucel (hydroxypropylcellulose) (HPC)
[3] = dose: 400.0 mg/kg/injection, schedule: Q04DX003 (ip), vehicle: Klucel (hydroxypropylcellulose) (HPC)
[4] = dose: 100.0 mg/kg/injection, schedule: Q01DX009 (ip), vehicle: Klucel (hydroxypropylcellulose) (HPC)
[5] = dose: 200.0 mg/kg/injection, schedule: Q01DX009 (ip), vehicle: Klucel (hydroxypropylcellulose) (HPC)
[6] = dose: 400.0 mg/kg/injection, schedule: Q01DX009 (ip), vehicle: Klucel (hydroxypropylcellulose) (HPC)
[7] = dose: 25.0 mg/kg/injection, schedule: Q01DX009 (ip), vehicle: saline with Tween-80
[8] = dose: 50.0 mg/kg/injection, schedule: Q01DX009 (ip), vehicle: saline with Tween-80
[9] = dose: 100.0 mg/kg/injection, schedule: Q01DX009 (ip), vehicle: saline with Tween-80
[10] = dose: 200.0 mg/kg/injection, schedule: Q01DX009 (ip), vehicle: saline with Tween-80
[11] = dose: 400.0 mg/kg/injection, schedule: Q01DX009 (ip), vehicle: saline with Tween-80
[12] = dose: 100.0 mg/kg/injection, schedule: Q04DX003 (ip), vehicle: saline
[13] = dose: 200.0 mg/kg/injection, schedule: Q04DX003 (ip), vehicle: saline
[14] = dose: 100.0 mg/kg/injection, schedule: Q04DX002 (ip), vehicle: Klucel (hydroxypropylcellulose) (HPC)
[15] = dose: 200.0 mg/kg/injection, schedule: Q04DX002 (ip), vehicle: Klucel (hydroxypropylcellulose) (HPC)
[16] = dose: 400.0 mg/kg/injection, schedule: Q04DX002 (ip), vehicle: Klucel (hydroxypropylcellulose) (HPC)
[17] = dose: 100.0 mg/kg/injection, schedule: Q04DX003 (ip), vehicle: saline with Tween-80
[18] = dose: 200.0 mg/kg/injection, schedule: Q04DX003 (ip), vehicle: saline with Tween-80

Measured: T/C

CC1(C)C2CC3C(C(=O)O)C(C(=O)O)CCC3(C2)C1OC=O (stereo not drawn)
inactive: [1] 99 % of control | [2] 92 % of control | [3] 103 % of control

Cc1cccc(C)c1NC(=O)Nc1cccc(Cl)c1
inactive: [4] 93 % of control | [1] 94 % of control | [5] 93 % of control | [2] 89 % of control | [6] 92 % of control | [3] 89 % of control

CCOC(=O)/C=C/Cc1cc(-c2ccccc2)ccc1O
inactive: dose: 100.0 mg/kg/injection, schedule: Q04DX003 (ip), vehicle: acetone 98 % of control | dose: 200.0 mg/kg/injection, schedule: Q04DX003 (ip), vehicle: acetone 98 % of control | dose: 400.0 mg/kg/injection, schedule: Q04DX003 (ip), vehicle: acetone 103 % of control

CCOC(=O)C(CC(C)C)NC(=O)CCCCSc1ncnc2nc[nH]c12 (stereo not drawn)
inactive: [7] 110 % of control | dose: 25.0 mg/kg/injection, schedule: Q01DX009 (oral), vehicle: saline with Tween-80 100 % of control | [8] 112 % of control | dose: 50.0 mg/kg/injection, schedule: Q01DX009 (oral), vehicle: saline with Tween-80 92 % of control | [9] 100 % of control | dose: 100.0 mg/kg/injection, schedule: Q01DX009 (oral), vehicle: saline with Tween-80 100 % of control | [10] 98 % of control | dose: 200.0 mg/kg/injection, schedule: Q01DX009 (oral), vehicle: saline with Tween-80 98 % of control | [11] 115 % of control | dose: 400.0 mg/kg/injection, schedule: Q01DX009 (oral), vehicle: saline with Tween-80 107 % of control | dose: 800.0 mg/kg/injection, schedule: Q01DX009 (oral), vehicle: saline with Tween-80 111 % of control

COc1ccc(CN2CCCN(Cc3ccc(OC)cc3OC)C2c2cc(Cl)ccc2O)c(OC)c1
inactive: dose: 50.0 mg/kg/injection, schedule: Q01DX001 (ip), vehicle: saline 95 % of control | dose: 100.0 mg/kg/injection, schedule: Q01DX001 (ip), vehicle: saline 86 % of control | dose: 200.0 mg/kg/injection, schedule: Q01DX001 (ip), vehicle: saline 95 % of control | dose: 400.0 mg/kg/injection, schedule: Q01DX001 (ip), vehicle: saline 86 % of control

CCCCCCCCOC(=O)c1[nH]cnc1/N=N/N(C)C1CCCCC1
inactive: dose: 100.0 mg/kg/injection, schedule: Q01DX001 (ip), vehicle: other 93 % of control | dose: 200.0 mg/kg/injection, schedule: Q01DX001 (ip), vehicle: other 96 % of control | dose: 400.0 mg/kg/injection, schedule: Q01DX001 (ip), vehicle: other 91 % of control

O=Cc1nc2ccccc2cc1CCl
inactive: dose: 75.0 mg/kg/injection, schedule: Q01DX001 (ip), vehicle: saline 92 % of control

COc1cc([N+](=O)[O-])cc(C=O)c1O
inactive: dose: 25.0 mg/kg/injection, schedule: Q04DX003 (ip), vehicle: Klucel (hydroxypropylcellulose) (HPC) 92 % of control | dose: 50.0 mg/kg/injection, schedule: Q04DX003 (ip), vehicle: Klucel (hydroxypropylcellulose) (HPC) 92 % of control | [1] 96 % of control and 101 % of control

CC1CCCC(C)(CO)O1 (stereo not drawn)
inactive: dose: 100.0 mg/kg/injection, schedule: Q01DX009 (ip), vehicle: saline 93 % of control | [12] 97 % of control | dose: 200.0 mg/kg/injection, schedule: Q01DX009 (ip), vehicle: saline 101 % of control | [13] 97 % of control | dose: 400.0 mg/kg/injection, schedule: Q01DX009 (ip), vehicle: saline 109 % of control | dose: 400.0 mg/kg/injection, schedule: Q04DX003 (ip), vehicle: saline 97 % of control

COC(=O)c1c(C)n(C)c2c1c1c(O)c3c(O)c(C)c4c(c32)C(=O)C(C)(O/C=C/C(OC)C(C)C(OC(C)=O)C(C)C(O)C(C)C(O)C(C)/C=C\C=C(C)C(=O)N1)O4 (stereo not drawn)
inactive: dose: 50.0 mg/kg/injection, schedule: Q04DX003 (ip), vehicle: water 104 % of control | dose: 100.0 mg/kg/injection, schedule: Q04DX003 (ip), vehicle: water 100 % of control | dose: 200.0 mg/kg/injection, schedule: Q04DX003 (ip), vehicle: water 98 % of control | dose: 400.0 mg/kg/injection, schedule: Q04DX003 (ip), vehicle: water 98 % of control

CCOC(=O)N/N=C/c1ccc(O)cc1
inactive: [14] 91 % of control | [15] 102 % of control | [16] 91 % of control

O=C(Nc1ccc(C(=O)O)cc1)Nc1cccc2ccccc12
inactive: [14] 113 % of control | [15] 93 % of control | [16] 97 % of control

CCCCC1C(=O)N(c2ccccc2)N(c2ccccc2)C1=O
inactive: dose: 17.0 mg/kg/injection, schedule: Q01DX Z (ip), vehicle: water 97 % of control | dose: 40.0 mg/kg/injection, schedule: Q01DX Z (ip), vehicle: water 100 % of control | dose: 60.0 mg/kg/injection, schedule: Q01DX Z (ip), vehicle: water 103 % of control | dose: 90.0 mg/kg/injection, schedule: Q01DX Z (ip), vehicle: water 100 % of control | dose: 135.0 mg/kg/injection, schedule: Q01DX Z (ip), vehicle: water 114 % of control

COC(=O)/C=C\C(=O)O
inactive: [12] 88 % of control | [13] 88 % of control

COC(=O)/C=C/NC(=O)c1ccccc1C(=O)OC
inactive: [4] 98 % of control | [1] 94 % of control | [5] 96 % of control | [2] 103 % of control | [6] 109 % of control | [3] 100 % of control

Nc1nc(N)c(N=Nc2ccc(S(N)(=O)=O)cc2)cc1N=Nc1ccccc1
inactive: dose: 100.0 mg/kg/injection, schedule: Q01DX001 (ip), vehicle: carboxymethylcellulose (CMC) 94 % of control | dose: 200.0 mg/kg/injection, schedule: Q01DX001 (ip), vehicle: carboxymethylcellulose (CMC) 94 % of control | dose: 400.0 mg/kg/injection, schedule: Q01DX001 (ip), vehicle: carboxymethylcellulose (CMC) 100 % of control

CC(C)C(=O)OCC1CC2C=CC1C2 (stereo not drawn)
inactive: dose: 222.0 mg/kg/injection, schedule: Q01DX Z (ip), vehicle: saline 96 % of control | dose: 333.0 mg/kg/injection, schedule: Q01DX Z (ip), vehicle: saline 104 % of control | dose: 500.0 mg/kg/injection, schedule: Q01DX Z (ip), vehicle: saline 98 % of control

Cc1ccc(C(=O)CCCCl)cc1C
inactive: [17] 95 % of control | [18] 89 % of control | dose: 400.0 mg/kg/injection, schedule: Q04DX003 (ip), vehicle: saline with Tween-80 88 % of control

O=c1c2ccccc2c(-c2ccccc2)nn1Cc1ccccc1
inactive: [9] 93 % of control | [10] 102 % of control | [11] 104 % of control

N/C(=N/N=C/c1ccncc1)N/N=C\c1ccncc1
inactive: dose: 30.0 mg/kg/injection, schedule: Q01DX Z (ip), vehicle: carboxymethylcellulose (CMC) 89 % of control | dose: 30.0 mg/kg/injection, schedule: Q01DX Z (oral), vehicle: carboxymethylcellulose (CMC) 106 % of control | dose: 60.0 mg/kg/injection, schedule: Q01DX Z (ip), vehicle: carboxymethylcellulose (CMC) 87 % of control | dose: 60.0 mg/kg/injection, schedule: Q01DX Z (oral), vehicle: carboxymethylcellulose (CMC) 95 % of control | dose: 120.0 mg/kg/injection, schedule: Q01DX Z (ip), vehicle: carboxymethylcellulose (CMC) 92 % of control | dose: 120.0 mg/kg/injection, schedule: Q01DX Z (oral), vehicle: carboxymethylcellulose (CMC) 97 % of control and 123 % of control | dose: 240.0 mg/kg/injection, schedule: Q01DX Z (oral), vehicle: carboxymethylcellulose (CMC) 101 % of control and 104 % of control | dose: 480.0 mg/kg/injection, schedule: Q01DX Z (oral), vehicle: carboxymethylcellulose (CMC) 101 % of control

CN(C)c1ccc(-c2c3cc(O)c(=O)cc-3oc3cc(O)c(O)cc23)cc1
inactive: dose: 50.0 mg/kg/injection, schedule: Q04DX003 (ip), vehicle: saline with Tween-80 95 % of control | [17] 90 % of control | [18] 87 % of control

CN(C)CCC(C)(N)c1cccc2ccccc12 (stereo not drawn)
inactive: [12] 113 % of control | [13] 107 % of control

Nc1ccn(CC(=O)c2cccs2)c(=O)n1
inactive: [7] 93 % of control | [8] 98 % of control | [9] 100 % of control and 103 % of control | [17] 94 % of control | [18] 110 % of control

Source: PubChem BioAssay AID248 (DTP/NCI, 2004)
